The results in this text go back to patent US20170100367A1, “USE OF ERIBULIN IN THE TREATMENT OF CANCER” (priority 2014, published 2017).

Data set [1] has as its system human breast cancer cell line MDA-MB-231 s.c. xenograft. Briefly: Antitumor effect of capecitabine after eribulin treatment in MDA-MB-231 s.c. xenograft model. Type of data set: in vivo, nude mice. Conditions: capecitabine 540 mg/kg QD8 p.o. after eribulin 1.0 mg/kg QD1 i.v.; MDA-MB-231 xenograft; FIG. 1. The procedure:
Antitumor Effect of Capecitabine after Eribulin Treatment in Human Breast Cancer Cell Line MDA-MB-231 s.c. Xenograft Models
MDA-MB-231 cells were cultured with RPMI 1640 medium containing 10% (v/v) FBS. Cultured tumor cells were suspended in 50% (v/v) BD Matrigel (BD bioscience, San Jose, Calif.) at a density of 10×10^7 cells/mL for s.c. inoculation into nude mice. A 0.1-mL aliquot of the cell suspension was transplanted subcutaneously into the right flank region of mice. Tumor volumes were calculated according to the following formula: (width [mm]^2×length [mm])/2. Tumor weights were calculated according to the following formula: tumor volume (mm^3)×1 (mg/mm^3). In the MDA-MB-231 xenograft model, when the mean tumor volume reached between 100 and 300 mg (1 mm^3=1 mg) on day 1, nude mice were randomly divided into each group. Control (no treatment); capecitabine, 540 mg/kg, QD8, p.o.; or eribulin, 1.0 mg/kg, QD1, i.v. was administered on day 1. In the eribulin group, eribulin-treated mice were randomly divided into two groups. […] The administration volume (0.1 mL/10 g body weight) was calculated based on the body weight before administration. The tumor volume was measured two times per week. […] The data was analyzed by the Dunnett multiple comparison test to compare two groups (GraphPad Prism version 6.02 (GraphPad Software Inc., La Jolla, Calif.)). […]

Data set [2] is described as follows: Pharmacokinetics study of carboplatin in tumor after administration of eribulin in MDA-MB-231 s.c. xenograft model. Format: in vivo, nude mice. Conditions: for Concentration of Carboplatin in MDA-MB-231 Tumor, AUC (0-8): tumor homogenate. The procedure: Pharmacokinetics Study of Carboplatin in Tumor after Administration of Eribulin in Human Breast Cancer Cell Line MDA-MB-231 s.c. Xenograft Models
Female nude mice, once acclimatised, were subcutaneously injected with 5×10^6 MDA-MB-231 cells in a 1:1 ratio (50 μL each) with matrigel in a volume of 0.1 mL in phosphate buffered saline, on the right flank area using a 26-gauge needle. This ensured that sufficient mice with tumors in the volume range of approximately 200˜300 mm^3 were available for the study. When the tumors reached an average size of approximately 250 mm^3, 30 mice were selected. The study included an initial experiment containing 24 mice. The first group received eribulin mesylate dosed i.v. as a single dose of 3 mg/kg; for a 20 g animal 200 μL of 0.3 mg/mL eribulin mesylate solution was dosed. To control for tumor size, a vehicle control group (vehicle B) consisting of 27 mice, was introduced before carboplatin dosing. The mice in this group were chosen so that their tumor size matches the tumor size of the eribulin mesylate-treated mice group. Vehicle B group was split in 2 groups, first one of 3 mice which received vehicle (saline) i.v. injection and the second group of 24 mice received carboplatin i.v. injection. On day 1 of vehicle B or on day 15 after the treatment of eribulin, 100 mg/kg carboplatin was administered to all mice intravenously and tumor samples were collected under anesthesia at the assigned time points 0.083, 0.25, 0.5, 1, 4, 8, 24, and 48 hours (n=3 for each time point). Tumors were homogenized with 3 times their respective weights of 1×PBS using a Mini Bead Beater-96, and the concentration of carboplatin in each tumor homogenate was analyzed by a validated LC-MS method.
The PK parameters of carboplatin in tumors were calculated using a non-compartmental approach (Pheonix/WinNonlin v. 6.3, Pharsight; Mountain View, Calif.). The time point at which the concentration of carboplatin highest was denoted as tmax. The highest concentration of carboplatin was denoted as Cmax. The observed area under the tumor concentration versus time curve from time zero to the last quantifiable time point (AUC (0-t)) and to infinity (AUC (0-inf)) were calculated using the trapezoidal method. The AUC (0-inf) was calculated as AUC (0-t)+AUC extrap, where AUC extrap represents the extrapolated AUC from the last quantifiable time point (Clast) to infinity, and was calculated as Clast/λZ. Lamda z (λZ), slope of the concentration versus time curve during the terminal phase, was determined by linear regression.
The mean, standard deviation (SD) and percent coefficient of variation (% CV) of tumor concentrations were calculated using Excel 2010 (Microsoft, Redmond, Wash.). The mean, SD, and % CV for the PK parameters of carboplatin were determined in WinNonlin or Excel 2010. […]
An AB Sciex (Foster City, Calif.) API5000 mass spectrometer, with electrospray ionization under positive ion mode, was used for sample analysis. The collision-activated dissociation (CAD) with N2 was used to generate structure characteristic product ions for quantitation.
The peak areas of carboplatin were integrated using Analyst 1.6 (AB Sciex, Foster City, Calif.), and the areas were imported into Watson 7.2 (Thermo Fisher Scientific, Waltham, Mass.). Internal standard, tolbutamide, was added to each sample, excluded blank without IS, however IS was not used for quantitation due to inconsistent instrument response of tolbutamide in all analytical runs. […]

The mark [3] stands for this setting: eribulin mesylate 3 mg/kg i.v., carboplatin 100 mg/kg i.v. on day 15.

For `CCCCCOC(=O)Nc1nc(=O)n([C@@H]2O[C@H](C)[C@@H](O)[C@H]2O)cc1F` [capecitabine], in data set [1], the “antitumor activity of capecitabine with eribulin pretreatment compared with that without pretreatment” value is “significantly enhanced”.
On to `N.N.O=C([O-])C1(C(=O)[O-])CCC1.[Pt+2]` [Carboplatin, carboplatin], for which, in data set [2] (Eribulin pretreatment (eribulin mesylate 3 mg/kg i.v. single dose), carboplatin 100 mg/kg i.v. on day 15), the “Concentration of Carboplatin in MDA-MB-231 Tumor, AUC (0-8)” value was 50504.02 ng·h/g. Also, the “Concentration of Carboplatin in MDA-MB-231 Tumor, AUC (0-8)” value in data set [2] (Vehicle B group (no eribulin), carboplatin 100 mg/kg i.v.) was determined as 36864.98 ng·h/g. Moreover, in data set [2] (setting [3]), the “AUC (0-8) of carboplatin in tumor, eribulin pretreatment group relative to Vehicle B group” value is listed as “about 1.37 fold” and the “Cmax of carboplatin in tumor, eribulin pretreatment group relative to Vehicle B group” value is reported as “about 2.20 fold”. Moreover, in data set [2] (eribulin pretreatment group mice, Table 1, FIG. 4), the “exposure of carboplatin in tumors” value was “high exposure”.
